Test results published in patent publication US9951025B2, “Halogenopyrazoles as inhibitors of thrombin” (VERSEON CORPORATION, priority 2013, dated 2018).
Non-standard residues stand in square brackets, D forms with d. No end group written: not given here. Oic = O=C(O)[C@@H]1C[C@@H]2CCCC[C@@H]2N1; Phe(4-Me) = Cc1ccc(C[C@H](N)C(=O)O)cc1

Assays:
glioma = conditions: systemic use, rat glioma models; cited from earlier work
[1] = cited from earlier work
tumor = conditions: cited from earlier work
[2] = test system: prostate cancer cell line PC-3; conditions: PC-3, concentration dependent manner; cited from earlier work
Human thrombin = molecular target: T1, Human thrombin (Homo sapiens, UniProt P00734); experiment: thrombin protease inhibition assay, chromogenic substrate S-2238; type: biochemical; conditions: 3 nM human thrombin, 125 μM S-2238, 10 min pre-incubation, RT
T1 construct: purchased Haematologic Technologies Inc
Method: Compounds described herein can be assayed, by a variety of methods known in the art and described herein, for inhibition of biological activity, e.g., protease activity, of a variety of proteins, e.g., thrombin.
The thrombin activity reported herein (e.g., Table A) was obtained as follows. […] Thrombin was assayed in buffer containing 0.05 M Tris (pH 7.4), 0.015 M NaCl and 0.01% PEG-8000. The final concentration of enzyme used was 3 nM thrombin. […] All assays were performed in 96-well microtiter plates at room temperature (RT). […] Inhibitor IC50 values were determined by adding test compound as ten point, three-fold serial dilutions in buffer solution, as known in the art. The plate was read at 10 minutes after substrate addition. The IC50 was calculated by plotting the percent (%) inhibition against compound concentration and fitting the data to a constrained four parameter sigmoidal curve, as known in the art.

Molecule	IC50 (Human thrombin)	also measured
CC1CNc2c(cccc2S(=O)(=O)N[C@@H](CCCNC(=N)N)C(=O)N2CC[C@@H](C)C[C@@H]2C(=O)O)C1 (some centres unmarked) [argatroban]		survival time (glioma): prolonged; tumor mass (glioma): reduced
N=C(N)c1ccc(CNC(=O)[C@@H]2CCN2C(=O)[C@H](NCC(=O)O)C2CCCCC2)cc1 [melagatran]		kidney graft survival ([1]; at 3 months): drastically improved; ischemia reperfusion injury ([1]; kidney transplant model): greatly reduced
[dR][Oic]P[dA][Phe(4-Me)]		overall tumor weight (tumor; compared to untreated mice): reduced; rate of tumor growth (tumor; mice dosed through drinking water): reduced; thrombin-stimulated invasion [2]: block
COc1ccc(C(=O)n2nc(NCc3ccc(Cl)s3)c(F)c2C2CCOCC2)c(OC)c1 [Compound 39, N-[(5-chlorothiophen-2-yl)methyl]-1-(2,4-dimethoxybenzoyl)-4-fluoro-5-(oxan-4-yl)-1H-pyrazol-3-amine]	> 1000 nM	
CC(C)(C)C(=O)n1nc(-c2ccc3c(c2)CCCC3O)c(F)c1NCc1ccc(Cl)s1 (centres unmarked) [Compound 2, 1-(5-[(5-chlorothiophen-2-yl)methyl]amino-4-fluoro-3-(5-hydroxy-5,6,7,8-tetrahydronaphthalen-2-yl)-1H-pyrazol-1-yl)-2,2-dimethylpropan-1-one]	> 1000 nM	
O=C1CCCN1c1ccc(-c2nn(C(=O)c3ccoc3)c(NCc3ccc(Cl)s3)c2F)cc1 [Compound 20, 1-[4-(5-[(5-chlorothiophen-2-yl)methyl]amino-4-fluoro-1-(furan-3-carbonyl)-1H-pyrazol-3-yl)phenyl]pyrrolidin-2-one]	> 1000 nM	
COc1ccccc1C(=O)n1nc(NCc2ccc(Cl)s2)c(F)c1C1CCN(S(=O)(=O)c2cccc3c(N(C)C)cccc23)CC1 [Compound 55, N-[(5-chlorothiophen-2-yl)methyl]-5-(1-[5-(dimethylamino)naphthalen-1-yl]sulfonylpiperidin-4-yl)-4-fluoro-1-(2-methoxybenzoyl)-1H-pyrazol-3-amine]	> 1000 nM	
O=C(c1ccccc1)n1nc(NCc2ccc(Cl)s2)c(F)c1C1CCOCC1 [Compound 25, 1-benzoyl-N-[(5-chlorothiophen-2-yl)methyl]-4-fluoro-5-(oxan-4-yl)-1H-pyrazol-3-amine]	> 1000 nM	
COc1ccccc1C(=O)n1nc(-c2ccc(C(O)C(F)(F)F)cc2)c(F)c1NCc1ccc(Cl)s1 (centres unmarked) [Compound 18, 1-[4-(5-[(5-chlorothiophen-2-yl)methyl]amino-4-fluoro-1-(2-methoxybenzoyl)-1H-pyrazol-3-yl)phenyl]-2,2,2-trifluoroethan-1-ol]	> 1000 nM	
O=C(c1cccc2c1OCCO2)n1nc(C2CCNCC2)c(F)c1NCc1ccc(Cl)s1 [Compound 33, N-[(5-chlorothiophen-2-yl)methyl]-1-(2,3-dihydro-1,4-benzodioxine-5-carbonyl)-4-fluoro-3-(piperidin-4-yl)-1H-pyrazol-5-amine]	< 100 nM	
COc1ccccc1C(=O)N(Cc1ccc(Cl)s1)c1[nH]nc(-c2ccc3c(c2)CCCC3=O)c1F [Compound 56, N-[(5-chlorothiophen-2-yl)methyl]-N-[4-fluoro-3-(5-oxo-5,6,7,8-tetrahydronaphthalen-2-yl)-1H-pyrazol-5-yl]-2-methoxybenzamide]	> 1000 nM	
O=C1CCCN1c1ccc(-c2nn(C(=O)c3cccc4c3OCCO4)c(NCc3ccc(Cl)s3)c2F)cc1 [Compound 17, 1-[4-(5-[(5-chlorothiophen-2-yl)methyl]amino-1-(2,3-dihydro-1,4-benzodioxine-5-carbonyl)-4-fluoro-1H-pyrazol-3-yl)phenyl]pyrrolidin-2-one]	< 100 nM	
O=C(c1ccoc1)n1nc(-c2ccccc2)c(F)c1NCc1ccc(Cl)s1 [Compound 51, N-[(5-chlorothiophen-2-yl)methyl]-4-fluoro-1-(furan-3-carbonyl)-3-phenyl-1H-pyrazol-5-amine]	< 100 nM	
CC1(C(=O)n2nc(-c3ccccc3)c(F)c2NCc2ccc(Cl)s2)COC1 [Compound 46, N-[(5-chlorothiophen-2-yl)methyl]-4-fluoro-1-(3-methyloxetane-3-carbonyl)-3-phenyl-1H-pyrazol-5-amine]	> 1000 nM	
CC(C)(C)C(=O)n1nc(-c2ccc(N3CCOCC3=O)cc2)c(F)c1NCc1ccc(Cl)s1 [Compound 28, 4-[4-(5-[(5-chlorothiophen-2-yl)methyl]amino-1-(2,2-dimethylpropanoyl)-4-fluoro-1H-pyrazol-3-yl)phenyl]morpholin-3-one]	< 100 nM	
COc1ccccc1C(=O)n1nc(C2CCN(S(=O)(=O)c3cccc4c(N(C)C)cccc34)CC2)c(F)c1NCc1ccc(Cl)s1 [Compound 40, N-[(5-chlorothiophen-2-yl)methyl]-3-(1-[5-(dimethylamino)naphthalen-1-yl]sulfonylpiperidin-4-yl)-4-fluoro-1-(2-methoxybenzoyl)-1H-pyrazol-5-amine]	> 1000 nM	
COCC(C)(C)C(=O)n1nc(-c2ccccc2)c(F)c1NCc1ccc(Cl)s1 [Compound 15, 1-(5-[(5-chlorothiophen-2-yl)methyl]amino-4-fluoro-3-phenyl-1H-pyrazol-1-yl)-3-methoxy-2,2-dimethylpropan-1-one]	< 100 nM	
COc1ccccc1C(=O)n1nc(-c2ccccc2)c(F)c1NCc1ccc(Cl)s1 [Compound 44, N-[(5-chlorothiophen-2-yl)methyl]-4-fluoro-1-(2-methoxybenzoyl)-3-phenyl-1H-pyrazol-5-amine]	< 100 nM	
O=C(c1ccoc1)n1nc(C2CCOCC2)c(F)c1NCc1ccc(Cl)s1 [Compound 49, N-[(5-chlorothiophen-2-yl)methyl]-4-fluoro-1-(furan-3-carbonyl)-3-(oxan-4-yl)-1H-pyrazol-5-amine]	< 100 nM	
O=C(c1cccc2c1OCCO2)n1nc(NCc2ccc(Cl)s2)c(F)c1C1CCOCC1 [Compound 35, N-[(5-chlorothiophen-2-yl)methyl]-1-(2,3-dihydro-1,4-benzodioxine-5-carbonyl)-4-fluoro-5-(oxan-4-yl)-1H-pyrazol-3-amine]	> 1000 nM	

More lines, main results first:

IC50 (Human thrombin)	Molecule	also measured
< 100 nM	CN(C)c1cccc2c(S(=O)(=O)N3CCC(c4nn(C(=O)C(C)(C)CO)c(NCc5ccc(Cl)s5)c4F)CC3)cccc12 [Compound 1, 1-(5-[(5-chlorothiophen-2-yl)methyl]amino-3-(1-[5-(dimethylamino)naphthalen-1-yl]sulfonylpiperidin-4-yl)-4-fluoro-1H-pyrazol-1-yl)-3-hydroxy-2,2-dimethylpropan-1-one]	
< 100 nM	O=C(c1cccc2c1OCCO2)n1nc(-c2ccccc2)c(F)c1NCc1ccc(Cl)s1 [Compound 34, N-[(5-chlorothiophen-2-yl)methyl]-1-(2,3-dihydro-1,4-benzodioxine-5-carbonyl)-4-fluoro-3-phenyl-1H-pyrazol-5-amine]	
< 100 nM	COc1ccccc1C(=O)n1nc(-c2ccccn2)c(F)c1NCc1ccc(Cl)s1 [Compound 43, N-[(5-chlorothiophen-2-yl)methyl]-4-fluoro-1-(2-methoxybenzoyl)-3-(pyridin-2-yl)-1H-pyrazol-5-amine]	
< 100 nM	CC(C)(CO)C(=O)n1nc(-c2ccccc2)c(F)c1NCc1ccc(Cl)s1 [Compound 14, 1-(5-[(5-chlorothiophen-2-yl)methyl]amino-4-fluoro-3-phenyl-1H-pyrazol-1-yl)-3-hydroxy-2,2-dimethylpropan-1-one]	
< 100 nM	COCCOc1ccc(C(=O)n2nc(C3CCOCC3)c(F)c2NCc2ccc(Cl)s2)cc1 [Compound 52, N-[(5-chlorothiophen-2-yl)methyl]-4-fluoro-1-[4-(2-methoxyethoxy)benzoyl]-3-(oxan-4-yl)-1H-pyrazol-5-amine]	
< 100 nM	O=C(c1ccoc1)n1nc(C2CCNCC2)c(F)c1NCc1ccc(Cl)s1 [Compound 50, N-[(5-chlorothiophen-2-yl)methyl]-4-fluoro-1-(furan-3-carbonyl)-3-(piperidin-4-yl)-1H-pyrazol-5-amine]	
< 100 nM	COc1ccccc1C(=O)n1nc(-c2ccccc2)c(F)c1NCc1ccccc1 [Compound 60, N-benzyl-4-fluoro-1-(2-methoxybenzoyl)-3-phenyl-1H-pyrazol-5-amine]	
< 100 nM	COCC(C)(C)C(=O)n1nc(C2CCOCC2)c(F)c1NCc1ccc(Cl)s1 [Compound 5, 1-(5-[(5-chlorothiophen-2-yl)methyl]amino-4-fluoro-3-(oxan-4-yl)-1H-pyrazol-1-yl)-3-methoxy-2,2-dimethylpropan-1-one]	
< 100 nM	COC(C)(C)C(=O)n1nc(C2CCNCC2)c(F)c1NCc1ccc(Cl)s1 [Compound 7, 1-(5-[(5-chlorothiophen-2-yl)methyl]amino-4-fluoro-3-(piperidin-4-yl)-1H-pyrazol-1-yl)-2-methoxy-2-methylpropan-1-one]	
< 100 nM	COCC(C)(C)C(=O)n1nc(C2CCNCC2)c(F)c1NCc1ccc(Cl)s1 [Compound 9, 1-(5-[(5-chlorothiophen-2-yl)methyl]amino-4-fluoro-3-(piperidin-4-yl)-1H-pyrazol-1-yl)-3-methoxy-2,2-dimethylpropan-1-one]	
< 100 nM	COc1ccccc1C(=O)n1nc(-c2ccc3c(c2)CCCC3=O)c(F)c1NCc1ccc(Cl)s1 [Compound 31, 6-(5-[(5-chlorothiophen-2-yl)methyl]amino-4-fluoro-1-(2-methoxybenzoyl)-1H-pyrazol-3-yl)-1,2,3,4-tetrahydronaphthalen-1-one]	
